Measured values taken from ChEMBL document CHEMBL1201862, “PubChem BioAssay data set” (2004).
Activity calls are given as the source filed them.

Tests used:
[1] = biological target: Eukaryotic translation initiation factor 4H (Homo sapiens, UniProt Q15056); assay: eIF4H inhibition in translation initiation, SAR follow-up (AID 435011); type: functional
[2] = biological target: Polyadenylate-binding protein 1 (Homo sapiens, UniProt P11940); assay: PABP inhibition in translation initiation, SAR follow-up (AID 435018); type: functional
Caspase-3 = biological target: T1, Caspase-3 (Homo sapiens, UniProt P42574); type: functional;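 further: Dose-response selectivity test against caspase-3 for candidate inhibitors of sentrin-specific proteases (SENPs)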
T1 sequence (P42574 whole entry): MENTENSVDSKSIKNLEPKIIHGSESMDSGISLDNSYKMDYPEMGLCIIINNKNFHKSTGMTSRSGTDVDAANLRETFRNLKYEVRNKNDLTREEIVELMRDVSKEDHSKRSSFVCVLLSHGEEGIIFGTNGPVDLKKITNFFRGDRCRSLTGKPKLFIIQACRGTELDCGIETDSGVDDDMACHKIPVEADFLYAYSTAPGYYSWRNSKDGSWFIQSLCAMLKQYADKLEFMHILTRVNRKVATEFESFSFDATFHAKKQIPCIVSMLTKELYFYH

Large T antigen = Large T antigen (Simian virus 40, UniProt P03070); type: functional, Betapolyomavirus macacae;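 further: Confirmatory-stage PubChem screen for compounds that inhibit SV40 T antigen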
[3] = biological target: T2, Sentrin-specific protease 8 (Homo sapiens, UniProt Q96LD8); type: functional;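 further: luminescence read-out of SENP8 inhibition, dose-response confirmation following an ultra-high-throughput screen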
T2 sequence (Q96LD8 whole entry): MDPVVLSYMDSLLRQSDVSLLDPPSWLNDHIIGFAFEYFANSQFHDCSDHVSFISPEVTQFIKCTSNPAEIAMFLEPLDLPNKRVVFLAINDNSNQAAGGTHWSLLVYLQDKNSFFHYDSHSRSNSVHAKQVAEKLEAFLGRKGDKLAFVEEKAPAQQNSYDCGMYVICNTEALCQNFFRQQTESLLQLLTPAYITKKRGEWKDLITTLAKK

[4] = biological target: T3, Sentrin-specific protease 6 (Homo sapiens, UniProt Q9GZR1); type: functional;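 further: Luminescence-based dose-response confirmatory assay of SENP6 inhibition, following up an ultra-high-throughput screen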
T3 sequence (Q9GZR1 whole entry): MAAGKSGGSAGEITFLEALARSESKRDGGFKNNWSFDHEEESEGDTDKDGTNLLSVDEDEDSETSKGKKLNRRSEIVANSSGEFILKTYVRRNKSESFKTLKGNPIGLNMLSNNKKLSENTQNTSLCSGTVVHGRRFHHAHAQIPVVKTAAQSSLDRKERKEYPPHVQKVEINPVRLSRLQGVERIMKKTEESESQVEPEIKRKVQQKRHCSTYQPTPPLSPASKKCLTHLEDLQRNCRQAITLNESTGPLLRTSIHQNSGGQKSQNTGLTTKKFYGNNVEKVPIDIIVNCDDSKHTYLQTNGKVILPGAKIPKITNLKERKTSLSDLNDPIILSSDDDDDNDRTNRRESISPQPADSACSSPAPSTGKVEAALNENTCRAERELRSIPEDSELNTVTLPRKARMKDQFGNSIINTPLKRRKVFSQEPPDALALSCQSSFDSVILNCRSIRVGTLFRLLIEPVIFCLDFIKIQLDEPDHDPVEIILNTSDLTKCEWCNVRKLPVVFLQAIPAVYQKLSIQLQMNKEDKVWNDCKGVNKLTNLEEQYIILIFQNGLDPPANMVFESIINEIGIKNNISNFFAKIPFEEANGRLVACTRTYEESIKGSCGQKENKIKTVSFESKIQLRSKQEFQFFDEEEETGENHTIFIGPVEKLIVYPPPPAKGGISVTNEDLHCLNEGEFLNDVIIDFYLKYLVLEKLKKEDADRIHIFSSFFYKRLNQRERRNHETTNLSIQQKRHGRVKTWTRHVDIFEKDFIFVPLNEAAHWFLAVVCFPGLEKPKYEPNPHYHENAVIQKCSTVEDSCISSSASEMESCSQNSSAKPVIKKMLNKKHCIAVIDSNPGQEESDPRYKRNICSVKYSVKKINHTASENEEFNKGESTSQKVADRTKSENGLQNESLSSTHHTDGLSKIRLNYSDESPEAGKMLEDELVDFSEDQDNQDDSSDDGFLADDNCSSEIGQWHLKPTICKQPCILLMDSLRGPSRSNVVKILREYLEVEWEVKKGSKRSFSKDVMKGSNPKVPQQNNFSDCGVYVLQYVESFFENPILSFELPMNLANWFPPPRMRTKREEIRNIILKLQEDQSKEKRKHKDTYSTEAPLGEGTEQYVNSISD

Bcl-2-like protein 10 = Bcl-2-like protein 10 (Homo sapiens, UniProt Q9HD36); assay: displacers of TR3 peptide from Bcl-B, primary screen, selectivity assay for Bfl-1 inhibitor project, biochemical, fluorescence polarization, FITC-TR3 peptide (AID 748);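 further: fluorescence polarization from a fluorescein-labelled TR3 peptide binding purified Bcl-B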
[5] = biological target: T4, Sentrin-specific protease 7 (Homo sapiens, UniProt Q9BQF6); type: functional;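 further: Luminescence-based dose-response confirmation of ultra-high-throughput screening hits, measuring inhibition of SENP7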
T4 sequence (Q9BQF6 whole entry): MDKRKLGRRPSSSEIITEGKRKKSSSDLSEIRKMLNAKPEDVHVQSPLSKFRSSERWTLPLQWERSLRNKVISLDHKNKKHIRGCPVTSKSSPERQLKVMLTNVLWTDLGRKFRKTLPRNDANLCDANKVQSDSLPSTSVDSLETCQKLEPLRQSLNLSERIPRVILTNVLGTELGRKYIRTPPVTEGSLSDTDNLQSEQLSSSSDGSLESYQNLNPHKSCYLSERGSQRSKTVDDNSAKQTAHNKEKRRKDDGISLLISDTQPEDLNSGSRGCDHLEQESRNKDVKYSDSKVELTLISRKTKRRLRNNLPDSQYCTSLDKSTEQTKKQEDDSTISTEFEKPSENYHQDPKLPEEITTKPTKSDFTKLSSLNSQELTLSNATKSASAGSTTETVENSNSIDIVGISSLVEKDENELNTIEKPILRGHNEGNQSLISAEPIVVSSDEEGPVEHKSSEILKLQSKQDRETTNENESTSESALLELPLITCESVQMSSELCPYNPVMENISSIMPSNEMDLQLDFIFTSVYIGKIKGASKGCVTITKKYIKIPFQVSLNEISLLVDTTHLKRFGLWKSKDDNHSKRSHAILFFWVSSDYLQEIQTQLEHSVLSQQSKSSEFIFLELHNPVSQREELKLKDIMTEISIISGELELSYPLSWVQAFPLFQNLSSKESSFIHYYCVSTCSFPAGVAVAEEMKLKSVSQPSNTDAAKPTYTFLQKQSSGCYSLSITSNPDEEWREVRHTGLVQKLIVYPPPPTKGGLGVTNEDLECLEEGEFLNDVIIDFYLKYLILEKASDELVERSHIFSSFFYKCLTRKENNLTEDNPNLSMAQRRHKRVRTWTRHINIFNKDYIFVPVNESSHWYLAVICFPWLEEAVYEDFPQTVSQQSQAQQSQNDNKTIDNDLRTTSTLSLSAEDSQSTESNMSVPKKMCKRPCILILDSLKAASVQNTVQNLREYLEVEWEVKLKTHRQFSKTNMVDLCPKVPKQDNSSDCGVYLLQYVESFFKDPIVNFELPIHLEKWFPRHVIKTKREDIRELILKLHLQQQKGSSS

Mu-type opioid receptor = Mu-type opioid receptor (Homo sapiens, UniProt P35372); assay: SAR Analysis of Antagonists of the MOR Receptor using an Image-Based Assay - Set 3. [Related pubchem assays (depositor defined):AID1777, AID1785, AID1786, AID1966, AID2133, AID2136, AID2284, AID2285, AID2420]; type: functional
[6] = biological target: T5, Kappa-type opioid receptor (Homo sapiens, UniProt P41145); assay: SAR analysis of Antagonists of the Kappa Opioid Receptor (KOR) using an Image-Based Assay - Set 3. [Related pubchem assays (depositor defined):AID1777, AID1785]; type: functional
[7] = biological target: Delta-type opioid receptor (Homo sapiens, UniProt P41143); assay: SAR Analysis of Antagonists of the DOR Receptor using an Image-Based Assay - Set 3. [Related pubchem assays (depositor defined):AID1777, AID1785]; type: functional;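 further: U2OS cells expressing DOR1 and beta-arrestin GFP stimulated with 100 nM SNC80; imaging of GFP-tagged beta-arrestin moving into spots after receptor activation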
[8] = biological target: T5, Kappa-type opioid receptor; assay: SAR analysis of small molecule antagonists of the kappa opioid receptor via a luminescent beta-arrestin assay - Set 3. [Related pubchem assays (depositor defined):AID1777, AID1778, AID1785, AID1786, AID1966, AID2133, AID2136, AID2285, AID2495]; type: functional
CAAX prenyl protease 2 = CAAX prenyl protease 2 (Saccharomyces cerevisiae S288c, UniProt Q03530); type: biochemical
Chain of CAAX prenyl protease 2 (Q03530 whole entry): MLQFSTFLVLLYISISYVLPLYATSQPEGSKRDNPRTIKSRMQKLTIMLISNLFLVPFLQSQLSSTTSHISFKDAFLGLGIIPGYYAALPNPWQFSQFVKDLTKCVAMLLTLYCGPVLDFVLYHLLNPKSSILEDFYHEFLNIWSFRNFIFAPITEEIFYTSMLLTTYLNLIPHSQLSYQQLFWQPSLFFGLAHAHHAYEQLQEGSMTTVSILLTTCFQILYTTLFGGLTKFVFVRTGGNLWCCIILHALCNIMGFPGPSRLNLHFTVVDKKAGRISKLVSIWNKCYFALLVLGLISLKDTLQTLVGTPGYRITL

T5 sequence (P41145 whole entry): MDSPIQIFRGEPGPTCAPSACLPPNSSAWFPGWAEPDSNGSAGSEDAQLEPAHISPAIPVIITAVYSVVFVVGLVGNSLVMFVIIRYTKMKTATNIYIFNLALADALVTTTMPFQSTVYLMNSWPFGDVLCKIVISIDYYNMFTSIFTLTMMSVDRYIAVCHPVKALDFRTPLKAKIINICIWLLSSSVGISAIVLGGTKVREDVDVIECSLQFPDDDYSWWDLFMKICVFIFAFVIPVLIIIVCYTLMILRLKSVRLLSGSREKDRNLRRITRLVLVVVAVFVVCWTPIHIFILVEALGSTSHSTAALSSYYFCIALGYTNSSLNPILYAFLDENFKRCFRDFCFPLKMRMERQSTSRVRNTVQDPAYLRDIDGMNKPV
Chain of Mu-type opioid receptor (P35372 whole entry): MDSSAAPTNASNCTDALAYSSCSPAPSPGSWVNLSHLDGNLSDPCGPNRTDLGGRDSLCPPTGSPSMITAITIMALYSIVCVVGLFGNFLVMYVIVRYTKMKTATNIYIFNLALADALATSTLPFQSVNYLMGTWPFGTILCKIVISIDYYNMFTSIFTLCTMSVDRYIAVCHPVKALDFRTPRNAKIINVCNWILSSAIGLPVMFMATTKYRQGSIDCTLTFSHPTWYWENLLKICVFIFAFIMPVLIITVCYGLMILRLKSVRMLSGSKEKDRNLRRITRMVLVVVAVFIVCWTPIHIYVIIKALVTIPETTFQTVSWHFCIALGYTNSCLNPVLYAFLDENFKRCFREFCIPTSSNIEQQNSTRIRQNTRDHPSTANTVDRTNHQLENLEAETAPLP
Chain of Polyadenylate-binding protein 1 (P11940 whole entry): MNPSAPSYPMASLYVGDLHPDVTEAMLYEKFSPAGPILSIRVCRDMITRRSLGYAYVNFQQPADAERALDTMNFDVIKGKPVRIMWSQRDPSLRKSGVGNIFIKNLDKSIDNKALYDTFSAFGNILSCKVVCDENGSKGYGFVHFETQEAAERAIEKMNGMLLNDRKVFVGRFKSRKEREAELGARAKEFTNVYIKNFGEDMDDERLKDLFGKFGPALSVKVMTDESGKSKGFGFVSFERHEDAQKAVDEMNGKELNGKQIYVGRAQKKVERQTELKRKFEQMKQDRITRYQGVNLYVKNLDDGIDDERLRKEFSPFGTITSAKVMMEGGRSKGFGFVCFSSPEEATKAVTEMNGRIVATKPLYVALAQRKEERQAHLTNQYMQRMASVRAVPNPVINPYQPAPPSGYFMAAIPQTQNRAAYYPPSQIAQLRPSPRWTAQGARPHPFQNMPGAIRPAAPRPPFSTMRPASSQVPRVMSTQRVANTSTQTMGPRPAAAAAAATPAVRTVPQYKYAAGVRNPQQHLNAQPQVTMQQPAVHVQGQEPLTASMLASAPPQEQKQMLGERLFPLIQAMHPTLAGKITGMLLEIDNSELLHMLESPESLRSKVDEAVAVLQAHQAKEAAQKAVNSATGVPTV
Chain of Delta-type opioid receptor (P41143 whole entry): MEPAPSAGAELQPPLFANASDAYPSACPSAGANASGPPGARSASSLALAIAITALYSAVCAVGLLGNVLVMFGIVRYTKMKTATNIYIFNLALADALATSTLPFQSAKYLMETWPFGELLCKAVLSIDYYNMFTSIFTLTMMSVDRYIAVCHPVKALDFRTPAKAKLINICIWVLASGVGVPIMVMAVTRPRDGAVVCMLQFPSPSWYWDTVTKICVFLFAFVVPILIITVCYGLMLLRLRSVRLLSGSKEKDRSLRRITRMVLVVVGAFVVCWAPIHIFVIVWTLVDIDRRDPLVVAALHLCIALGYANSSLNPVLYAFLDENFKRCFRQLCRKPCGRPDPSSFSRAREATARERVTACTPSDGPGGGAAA
Chain of Bcl-2-like protein 10 (Q9HD36 whole entry): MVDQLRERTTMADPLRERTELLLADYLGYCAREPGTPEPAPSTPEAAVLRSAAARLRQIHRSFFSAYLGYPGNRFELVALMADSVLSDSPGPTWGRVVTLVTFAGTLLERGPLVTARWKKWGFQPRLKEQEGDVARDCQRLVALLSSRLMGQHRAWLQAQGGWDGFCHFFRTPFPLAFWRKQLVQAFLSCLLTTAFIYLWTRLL
Chain of Large T antigen (P03070 whole entry): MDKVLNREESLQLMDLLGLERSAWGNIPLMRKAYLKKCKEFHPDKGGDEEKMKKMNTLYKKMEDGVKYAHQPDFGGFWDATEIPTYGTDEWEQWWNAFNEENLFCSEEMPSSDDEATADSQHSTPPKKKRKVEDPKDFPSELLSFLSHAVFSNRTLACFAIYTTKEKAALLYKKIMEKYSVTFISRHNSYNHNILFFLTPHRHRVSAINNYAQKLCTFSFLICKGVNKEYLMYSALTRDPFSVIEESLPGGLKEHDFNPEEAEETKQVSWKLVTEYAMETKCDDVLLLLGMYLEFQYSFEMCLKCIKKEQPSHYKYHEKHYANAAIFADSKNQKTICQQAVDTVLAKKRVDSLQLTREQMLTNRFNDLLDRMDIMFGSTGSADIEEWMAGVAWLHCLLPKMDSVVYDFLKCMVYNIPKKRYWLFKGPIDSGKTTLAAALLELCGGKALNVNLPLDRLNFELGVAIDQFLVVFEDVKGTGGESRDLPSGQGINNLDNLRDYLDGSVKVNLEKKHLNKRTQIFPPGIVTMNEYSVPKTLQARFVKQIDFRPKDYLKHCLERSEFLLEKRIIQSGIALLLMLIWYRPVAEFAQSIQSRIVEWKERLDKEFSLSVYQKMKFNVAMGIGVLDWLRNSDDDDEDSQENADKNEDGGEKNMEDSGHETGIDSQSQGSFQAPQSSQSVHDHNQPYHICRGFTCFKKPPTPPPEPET

| Compound | IC50 [1] | IC50 [2] | IC50 (Mu-type opioid receptor) | IC50 [6] | IC50 [7] | IC50 [8] | further results |
| --- | --- | --- | --- | --- | --- | --- | --- |
| CS(=O)(=O)c1ccccc1C(=O)Nc1cccc2ncccc12 | 16.1 µM (active) | 20.2 µM (active) |  |  |  |  |  |
| Cc1csc(N/N=C/c2ccc(O)c([N+](=O)[O-])c2)n1 |  |  |  |  |  |  | IC50 (Caspase-3): 3.15 µM (active); IC50 (Large T antigen): 22.1 µM (active); IC50 [3]: 8.45 µM (active); IC50 [4]: 9.25 µM (active); IC50 (Bcl-2-like protein 10): > 100 µM (inactive); IC50 [5]: 4.19 µM (active) |
| CN1CCN(CCCNC(=O)Cn2c(=O)c3cccn3c3cccnc32)CC1 |  |  | > 32 µM (inactive) | > 32 µM (inactive) | > 32 µM (inactive) | > 20 µM (inactive) |  |
| O=S(=O)(c1ccccc1)c1nc(-c2ccco2)oc1N1CCCCC1 |  |  |  |  |  |  | AC50 (CAAX prenyl protease 2): 7.38 µM (active) |
| O=C(NCCN1Cc2ccccc2C1)c1ccc(CNS(=O)(=O)c2ccc(Br)cc2)cc1 |  |  | > 32 µM (inactive) | > 32 µM (inactive) | > 32 µM (inactive) | > 20 µM (inactive) |  |
| O=C(Nc1ccccc1Cl)C1CCN(C(=O)c2cccs2)CC1 | > 100 µM (inactive) | > 100 µM (inactive) |  |  |  |  |  |
